Structures can show the parent of a compound that is named as a salt. A value given as a limit tells only on which side of the number the result lay.

The first assay has as its target T1, human C1s protein (Homo sapiens, UniProt P09871).
T1 construct: A104
T1 sequence (P09871 16-688): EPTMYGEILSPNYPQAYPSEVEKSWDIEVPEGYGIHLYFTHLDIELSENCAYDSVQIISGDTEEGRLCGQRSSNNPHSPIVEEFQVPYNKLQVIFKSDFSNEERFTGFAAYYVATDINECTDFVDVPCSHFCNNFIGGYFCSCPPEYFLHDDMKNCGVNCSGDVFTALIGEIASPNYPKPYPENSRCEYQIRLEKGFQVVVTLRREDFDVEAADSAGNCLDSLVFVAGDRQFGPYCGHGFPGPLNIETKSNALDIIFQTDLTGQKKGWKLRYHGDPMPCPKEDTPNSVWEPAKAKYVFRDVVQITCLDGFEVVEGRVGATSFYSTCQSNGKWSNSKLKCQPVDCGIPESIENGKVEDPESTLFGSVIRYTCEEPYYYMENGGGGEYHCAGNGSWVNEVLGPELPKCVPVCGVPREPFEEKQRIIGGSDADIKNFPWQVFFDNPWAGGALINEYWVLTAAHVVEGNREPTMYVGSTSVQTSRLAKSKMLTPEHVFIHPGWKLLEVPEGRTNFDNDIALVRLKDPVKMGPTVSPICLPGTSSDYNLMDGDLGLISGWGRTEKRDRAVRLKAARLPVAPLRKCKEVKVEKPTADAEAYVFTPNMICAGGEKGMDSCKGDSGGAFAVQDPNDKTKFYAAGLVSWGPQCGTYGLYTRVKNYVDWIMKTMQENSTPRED
In words: C1s enzymatic assay (hydrolysis of YLGR-Rh110-dPro). Type of assay: biochemical. To be noted: substrate YLGR-Rh110-dPro 20 μM, 15 min pre-incubation, 60 min RT, fluorescence. The essentials: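 Fluorogenic assay in which C1s cleaves YLGR-Rh110-dPro (20 μM final) to release fluorescent Rh110, in buffer with 0.1 mg/mL BSA. Enzyme was preincubated 15 min with compound before substrate was added. Compounds were run as 11-point curves, with DMSO as high control and Nafamostat as low control.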
“7-(3-cyclopropyl-1-hydroxy-3,4-dihydro-2,1-benzoxazonin-7-yl)cinnolin-4-amine [Example 147]”: the “hC1s pIC50” value is on record as 8.38.

The assay is the same for the next values; noted with them: substrate YLGR-Rh110-dPro 20 μM, 15 min pre-incubation, 60 min RT, fluorescence, read-out: hC1s pIC50 (converted).
For the molecule `COCCOCCOc1ccc(B(O)O)cc1-c1ccc2c(N)cnnc2c1` [Example 107, [3-(4-aminocinnolin-7-yl)-4-[2-(2-methoxyethoxy)ethoxy]phenyl]boronic Acid], the IC50 is 1 nM. For the molecule `COc1ccc(B(O)O)c(F)c1-c1ccc2c(N)nnc(C)c2c1` [Example 34, [3-(1-amino-4-methylphthalazin-6-yl)-2-fluoro-4-methoxyphenyl]boronic Acid Formic Acid Salt], the IC50 is 1.02 nM. Still for that read-out and setting: the result for `CC(C)C1Cc2ccc(-c3ccc4c(N)cnnc4c3)cc2B(O)O1` (single isomer, unassigned) [Example 152] reads 3.09 nM. The same measure, in the same setting: the result for `Cc1nnc(N)c2ccc(-c3cc(B(O)O)ccc3OC(F)(F)F)cc12` [Example 15, [3-(1-amino-4-methylphthalazin-6-yl)-4-(trifluoromethoxy)phenyl]boronic Acid] reads 1.7 nM; that for `COc1ccc(B(O)O)cc1-c1ccc2c(N)ncc(C)c2c1` [Example 111, [3-(1-amino-4-methylisoquinolin-6-yl)-4-methoxyphenyl]boronic Acid], 17.4 nM; that for `COCc1cc(OC)c(-c2ccc3c(N)cnnc3c2)cc1B(O)O` [Example 137, [5-(4-aminocinnolin-7-yl)-4-methoxy-2-(methoxymethyl)phenyl]boronic Acid Formic Acid Salt], 2.82 nM. On the same count and under the same terms, the result for `CCc1ccc(B(O)O)cc1-c1ccc2c(N)nnc(C)c2c1` [Example 12, [3-(1-amino-4-methylphthalazin-6-yl)-4-ethylphenyl]boronic Acid Formic Acid Salt] reads 8.13 nM; that for `Nc1cnnc2cc(-c3cc(B(O)O)ccc3OCC3CNC(=O)C3)ccc12` (single isomer, unassigned) [Example 155, [3-(4-aminocinnolin-7-yl)-4-[(5-oxopyrrolidin-3-yl)methoxy]phenyl]boronic Acid], 3.89 nM.

As to `Nc1cnnc2cc(-c3cc(B(O)O)ccc3OC(F)(F)C(F)F)ccc12` [Example 105, [3-(4-aminocinnolin-7-yl)-4-(1,1,2,2-tetrafluoroethoxy)phenyl]boronic Acid], the IC50 is 1.12 nM. For `Cc1nnc(N)c2ccc(-c3cc(B(O)O)ccc3C(F)(F)F)cc12` [Example 39, [3-(1-amino-4-methylphthalazin-6-yl)-4-(trifluoromethyl)phenyl]boronic Acid Formic Acid Salt], the IC50 was 1.32 nM. On the same count and under the same terms, the result for `Cc1nnc(N)c2ccc(-c3ccc(NC(=O)c4ccccc4Cl)c(B(O)O)c3)cc12` [Example 93, [5-(1-amino-4-methylphthalazin-6-yl)-2-[(2-chlorobenzoyl)amino]phenyl]boronic Acid] reads 1 nM; that for `COc1ccc(B(O)O)cc1-c1ccc2ccncc2c1` [Example 161, [3-(isoquinolin-7-yl)-4-methoxyphenyl]boronic Acid], greater than 25100 nM; that for `CC1(C)Cc2cc(B(O)O)cc(-c3ccc4c(N)cnnc4c3)c2O1` [Example 170, [7-(4-aminocinnolin-7-yl)-2,2-dimethyl-2,3-dihydro-1-benzofuran-5-yl]boronic Acid Formic Acid Salt], 1.07 nM. As to `COc1ccc(B(O)O)cc1-c1cc(OC)c2ccnnc2c1` [Example 162, [4-methoxy-3-(5-methoxycinnoline-7-yl)phenyl]boronic Acid], the IC50 is greater than 25100 nM. Still for that read-out and setting: the result for `COc1ccc(B(O)O)cc1-c1cc(C)c2c(N)cnnc2c1` [Example 67, [3-(4-amino-5-methylcinnolin-7-yl)-4-methoxyphenyl]boronic Acid] reads 17 nM.

Consider `CC1Cc2ccc(-c3ccc4c(N)cnnc4c3)cc2B(O)O1` (single isomer, unassigned) [Example 95], for which the IC50 was 3.55 nM. Regarding `Cc1nnc(N)c2ccc(-c3ccc(NC(=O)c4ccccc4)c(B(O)O)c3)cc12` [Example 70, [5-(1-amino-4-methylphthalazin-6-yl)-2-benzamidophenyl]boronic Acid], the IC50 is 3.8 nM. Consider `Cc1cc2cc(-c3cccc(B(O)O)c3)ccc2c(N)n1` [Example 13, [3-(1-amino-3-methylisoquinolin-6-yl)phenyl]boronic Acid; Trifluoroacetic Acid Salt], for which the IC50 was 37.2 nM. The same measure, in the same setting: the result for `Cc1nc2c(-c3ccc4c(N)nnc(C)c4c3)cc(B(O)O)cc2o1` [Example 125, [4-(1-amino-4-methylphthalazin-6-yl)-2-methyl-1,3-benzoxazol-6-yl]boronic Acid Formic Acid Salt] reads 3.24 nM; that for `COc1ccc(B(O)O)cc1-c1cc(F)c2c(N)nnc(C)c2c1` [Example 55], 6.61 nM. Consider `COc1cc(Cl)c(B(O)O)cc1-c1ccc2c(N)nnc(C)c2c1` [Example 50, [5-(1-amino-4-methylphthalazin-6-yl)-2-chloro-4-methoxyphenyl]boronic Acid], for which the IC50 was 0.891 nM.

Take `CC(C)NC(=O)COc1ccc(B(O)O)cc1-c1ccc2c(N)cnnc2c1` [Example 76, [3-(4-aminocinnolin-7-yl)-4-[2-oxo-2-(propan-2-ylamino)ethoxy]phenyl]boronic Acid]: the IC50 is 2.88 nM. For the molecule `CC(C)NC(=O)c1ccc(B(O)O)cc1-c1ccc2c(N)cnnc2c1` [Example 120, [3-(4-aminocinnolin-7-yl)-4-(propan-2-ylcarbamoyl)phenyl]boronic Acid Formic Acid Salt], the IC50 is 11.2 nM. Same read-out and setting: the result for `Nc1cnnc2cc(-c3cc(B(O)O)cc4c3OCC4)ccc12` [Example 138, [7-(4-aminocinnolin-7-yl)-2,3-dihydro-1-benzofuran-5-yl]boronic Acid Formic Acid Salt] reads 1.62 nM. The same measure, in the same setting: the result for `Cc1nnc(N)c2ccc(-c3cc(B(O)O)ccc3NC(=O)CCC(C)C)cc12` [Example 61, [3-(1-amino-4-methylphthalazin-6-yl)-4-(4-methylpentanoylamino)phenyl]boronic Acid Formic Acid Salt] reads 6.76 nM. The same measure, in the same setting: the result for `Nc1cnnc2cc(-c3c(OC(F)F)ccc(B(O)O)c3F)ccc12` [Example 97, [3-(4-aminocinnolin-7-yl)-4-(difluoromethoxy)-2-fluorophenyl]boronic Acid] reads 11.7 nM; that for `Cc1nnc(N)c2ccc(-c3cc(B(O)O)cc(C(F)(F)F)c3)cc12` [Example 38], 1.05 nM. As to `COc1ccc(B(O)O)cc1-c1cc2nncc(N)c2cc1F` [Example 92, [3-(4-amino-6-fluorocinnoline-7-yl)-4-methoxyphenyl]boronic Acid], the IC50 is 17.4 nM. On the same count and under the same terms, the result for `Cc1nnc(N)c2ccc(-c3cc(B(O)O)cc(F)c3C#N)cc12` [Example 36, [3-(1-amino-4-methylphthalazin-6-yl)-4-cyano-5-fluorophenyl]boronic Acid Formic Acid Salt] reads 1.91 nM; that for `Cc1nnc(N)c2ccc(-c3cc(B(O)O)ccc3NC(=O)c3cnsc3)cc12` [Example 87, [3-(1-amino-4-methylphthalazin-6-yl)-4-(1,2-thiazole-4-amido)phenyl]boronic Acid], 11200 nM; that for `Cc1nnc(N)c2ccc(-c3cc(B(O)O)ccc3NC(=O)CC(C)C)cc12` [Example 59, [3-(1-amino-4-methylphthalazin-6-yl)-4-(3-methylbutanoylamino)phenyl]boronic Acid Formic Acid Salt], 3.24 nM. For the molecule `Nc1cnnc2cc(-c3ccc4c(c3)B(O)ON=C4)ccc12` [Example 156, 7-(4-aminocinnolin-7-yl)-1H-2,3,1-benzoxazonin-1-ol Formic Acid Salt], the IC50 was 55 nM. Still for that read-out and setting: the result for `COc1ccc(B(O)O)cc1-c1ccc2c(O)nncc2c1` [Example 160, [3-(1-hydroxyphthalazin-6-yl)-4-methoxyphenyl]boronic Acid] reads greater than 25100 nM; that for `COc1cc(C(F)F)c(B(O)O)cc1-c1ccc2c(N)nnc(C)c2c1` [Example 35, [5-(1-amino-4-methylphthalazin-6-yl)-2-(difluoromethyl)-4-methoxyphenyl]boronic Acid], 2.69 nM; that for `Cc1nnc(N)c2ccc(-c3cc(B(O)O)ccc3C#N)cc12` [Example 29, [3-(1-amino-4-methylphthalazin-6-yl)-4-cyanophenyl]boronic Acid], 1.91 nM. Consider `CS(=O)(=O)c1ccc(B(O)O)cc1-c1ccc2c(N)cnnc2c1` [Example 164, [3-(4-aminocinnolin-7-yl)-4-methylsulfonylphenyl]boronic acid formic acid salt], for which the IC50 is 12.6 nM. Same read-out and setting: the result for `COc1ccc(B(O)O)cc1-c1ccc2ccnnc2c1` [Example 80, [3-(cinnolin-7-yl)-4-methoxyphenyl]boronic Acid] reads 617 nM.
